This is an account of results in the supplement of paper PMC10307832.

Holding throughout (experiment): relative viability (nuclei count vs DMSO), 5 days (fraction); higher = more cells survive
Compound in experiment [1]: CC(C)C[C@H](NC(=O)[C@H](Cc1ccccc1)NC(=O)c1cnccn1)B(O)O [Bortezomib] + C[C@]1(O)C[C@@H](c2nc(-c3ccc4ccc(-c5ccccc5)nc4c3)c3c(N)nccn32)C1 [Linsitinib] (partner 1 µM)
The procedure, abridged:
(§1)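 Five library-drug doses in √10 steps were combined with a fixed anchor-drug dose, or a single drug was given alone, by pin tool to lung cancer cell lines in 1536-well plates the day after seeding. Nuclei were stained and counted after 5 days. Relative viability is the nuclei count in treated wells over that in vehicle wells, taken as the median of duplicate plates.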

Compound in experiment [2]: CC1=CC(=NN1)NC2=CC(=NC(=N2)/C=C/C3=CC=CC=C3)N4CCN(CC4)C + CS(=O)(=O)N1CCN(Cc2cc3nc(-c4cccc5[nH]ncc45)nc(N4CCOCC4)c3s2)CC1 [Pictilisib] (partner 1 µM)
In a few lines:
as §1

Compound in experiment [3]: COC1=CC(c2cc3ccccc3[nH]2)=N/C1=C\c1[nH]c(C)cc1C [Obatoclax] + CC1(C)CCC(c2ccc(Cl)cc2)=C(CN2CCN(c3ccc(C(=O)NS(=O)(=O)c4ccc(N[C@H](CCN5CCOCC5)CSc5ccccc5)c(S(=O)(=O)C(F)(F)F)c4)cc3)CC2)C1 [Navitoclax] (partner 0.5 µM)
The procedure, abridged:
as §1

Compound in experiment [4]: COC1=CC(c2cc3ccccc3[nH]2)=N/C1=C\c1[nH]c(C)cc1C [Obatoclax] + C[C@]1(O)C[C@@H](c2nc(-c3ccc4ccc(-c5ccccc5)nc4c3)c3c(N)nccn32)C1 [Linsitinib] (partner 1 µM)
In a few lines:
as §1

For the cell line NCI-H2347, the relative viability in experiment [1] (first compound 0.0002 µM) amounted to 0.93; in experiment [1] (first compound 0.000632 µM), 0.92; in experiment [1] (first compound 0.002 µM), 0.848; in experiment [1] (first compound 0.006325 µM), 0.29; in experiment [1] (first compound 0.02 µM) it was 0.325; in experiment [2] (first compound 0.08 µM) it was 0.63. Besides, the relative viability worked out at 0.342 in experiment [2] (first compound 0.253 µM); 0.777 in experiment [2] (first compound 0.8 µM); 0.417 in experiment [2] (first compound 2.53 µM); 0.333 in experiment [2] (first compound 8 µM); 0.724 in experiment [3] (first compound 0.01 µM); 0.781 in experiment [3] (first compound 0.03162 µM). Besides, the relative viability turned out to be 0.698 in experiment [3] (first compound 0.1 µM); 0.602 in experiment [3] (first compound 0.3162 µM); 0.877 in experiment [3] (first compound 1 µM); 0.915 in experiment [4] (first compound 0.01 µM); 0.91 in experiment [4] (first compound 0.03162 µM); 0.787 in experiment [4] (first compound 0.1 µM). In addition, the relative viability in experiment [4] (first compound 0.3162 µM) worked out at 0.91; in experiment [4] (first compound 1 µM), 0.909.

For the cell line NCI-H2405, the relative viability was 0.868 in experiment [1] (first compound 0.0002 µM); 0.32 in experiment [1] (first compound 0.002 µM); 0.147 in experiment [1] (first compound 0.006325 µM); 0.169 in experiment [1] (first compound 0.02 µM); 0.473 in experiment [2] (first compound 0.08 µM); 0.32 in experiment [2] (first compound 0.253 µM). In addition, the relative viability in experiment [2] (first compound 0.8 µM) is 0.452; in experiment [2] (first compound 2.53 µM), 0.179; in experiment [2] (first compound 8 µM), 0.133; in experiment [3] (first compound 0.01 µM), 0.82; in experiment [3] (first compound 0.03162 µM), 1.06; in experiment [3] (first compound 0.3162 µM), 0.862. Besides, the relative viability in experiment [3] (first compound 1 µM) came out at 0.857; in experiment [4] (first compound 0.01 µM), 0.936; in experiment [4] (first compound 0.03162 µM), 1.11; in experiment [4] (first compound 0.3162 µM), 0.866; in experiment [4] (first compound 1 µM), 0.87.

In the case of NCI-H3122, the relative viability in experiment [1] (first compound 0.0002 µM) amounted to 1.01; in experiment [1] (first compound 0.000632 µM) it was 1.04; in experiment [1] (first compound 0.002 µM), 1.09; in experiment [1] (first compound 0.006325 µM) it was 0.606; in experiment [1] (first compound 0.02 µM), 0.179; in experiment [2] (first compound 0.08 µM), 0.588. The relative viability in experiment [2] (first compound 0.253 µM) stood at 0.345; in experiment [2] (first compound 0.8 µM), 0.659; in experiment [2] (first compound 2.53 µM), 0.428; in experiment [2] (first compound 8 µM), 0.291; in experiment [3] (first compound 0.01 µM), 1.02; in experiment [3] (first compound 0.03162 µM), 1.01. Also, the relative viability in experiment [3] (first compound 0.1 µM) is 1.04; in experiment [3] (first compound 0.3162 µM), 1.04; in experiment [3] (first compound 1 µM), 1.02; in experiment [4] (first compound 0.01 µM), 1.01; in experiment [4] (first compound 0.03162 µM), 1.02; in experiment [4] (first compound 0.1 µM), 1.04. Also, the relative viability turned out to be 0.97 in experiment [4] (first compound 0.3162 µM) and 1.01 in experiment [4] (first compound 1 µM).

In the case of PC-3 [JPC-3], the relative viability in experiment [1] (first compound 0.0002 µM) came out at 0.989; in experiment [1] (first compound 0.000632 µM) it was 0.929; in experiment [1] (first compound 0.002 µM), 0.87; in experiment [1] (first compound 0.006325 µM), 0.916; in experiment [1] (first compound 0.02 µM), 0.186; in experiment [2] (first compound 0.08 µM), 0.763. Moreover, the relative viability in experiment [2] (first compound 0.253 µM) amounted to 0.721; in experiment [2] (first compound 0.8 µM), 0.706; in experiment [2] (first compound 2.53 µM), 0.648; in experiment [2] (first compound 8 µM), 0.579; in experiment [3] (first compound 0.01 µM), 0.853; in experiment [3] (first compound 0.03162 µM), 0.682. The relative viability in experiment [3] (first compound 0.1 µM) turned out to be 0.801; in experiment [3] (first compound 0.3162 µM) it was 0.796; in experiment [3] (first compound 1 µM), 0.668; in experiment [4] (first compound 0.01 µM), 0.947; in experiment [4] (first compound 0.03162 µM), 0.936; in experiment [4] (first compound 0.1 µM), 0.963. Also, the relative viability amounted to 0.989 in experiment [4] (first compound 0.3162 µM) and 0.898 in experiment [4] (first compound 1 µM).

On to PC-14, for which the relative viability in experiment [1] (first compound 0.0002 µM) was found to be 0.941; in experiment [1] (first compound 0.000632 µM), 0.917; in experiment [1] (first compound 0.002 µM), 0.974; in experiment [1] (first compound 0.006325 µM), 0.152; in experiment [1] (first compound 0.02 µM), 0.0932; in experiment [2] (first compound 0.08 µM) it was 0.651. The relative viability in experiment [2] (first compound 0.253 µM) worked out at 0.635; in experiment [2] (first compound 0.8 µM) it was 0.56; in experiment [2] (first compound 2.53 µM), 0.199; in experiment [2] (first compound 8 µM), 0.0209; in experiment [3] (first compound 0.01 µM) it was 0.968; in experiment [3] (first compound 0.03162 µM), 1.07. Further, the relative viability in experiment [3] (first compound 0.1 µM) was 0.962; in experiment [3] (first compound 0.3162 µM), 0.847; in experiment [3] (first compound 1 µM), 0.128; in experiment [4] (first compound 0.01 µM) it was 0.911; in experiment [4] (first compound 0.03162 µM), 1.01; in experiment [4] (first compound 0.1 µM), 0.892. In addition, the relative viability in experiment [4] (first compound 0.3162 µM) was 0.902; in experiment [4] (first compound 1 µM), 0.58.
